Laboratory results: patent US8710070B2, “Opioid-ketamine and norketamine codrug combinations for pain management” (University of Kentucky Research Foundation, priority 2008, dated 2014)
Where “and” joins values, the source holds several entries; their conditions need not be identical. Identical values can stand only once. Like-named read-outs stand apart in the source and are kept apart here.

Columns and labels:
Male Rats = conditions: individual rats
Description: • 1) Solution MOR 3 mg/ul (the same Mor. […] 1) • 2) (+) Norketamine 3 mg/ml dose 3 mg/kg inj.
• TFL—intensity 40%, idle activity 5%, cut-off 10 sec.
• TFL—Intensity 40%, idle activity 5%, cut-off 10 sec.
• TFL—Intensity 40%, idle activity 5%, cut-off 10 seconds Solutions:

[1] = C. S. T. Aun, 1999, cited from earlier work
NMDA receptor = conditions: Ebert et al., 1997; cited from earlier work

CN1CC[C@]23c4c5ccc(O)c4O[C@H]2[C@@H](O)C=C[C@H]3[C@H]1C5 [Morphine, morphine]
TFL 15 min. (Male Rats; Day 1, male rats 5-8, MOR 3 mg/kg + SAL or (+) Norket 3 mg/kg, 15 min after injection, listed as MOR): 3.24 s and 3.55 s | TFL 30 min. (Male Rats; Day 1, male rats 5-8, MOR 3 mg/kg + SAL or (+) Norket 3 mg/kg, 30 min after injection, listed as MOR): 5.72 s and 6.2 s | TFL 60 min. (Male Rats; Day 1, male rats 5-8, MOR 3 mg/kg + SAL or (+) Norket 3 mg/kg, 60 min after injection, listed as MOR): 1.93 s and 4.50 s | TFL 120 min. (Male Rats; Day 1, male rats 5-8, MOR 3 mg/kg + SAL or (+) Norket 3 mg/kg, 120 min after injection, listed as MOR): 1.61 s and 5.44 s | TFL 15 min. (Male Rats; Day 2, male rats 1-4, Mor 3 mg/kg & (−) Norketamine 3 mg/kg or saline, 15 min, cut-off 10 sec, listed as Mor): 2.03 s and 4.89 s | TFL 30 min. (Male Rats; Day 2, male rats 1-4, Mor 3 mg/kg & (−) Norketamine 3 mg/kg or saline, 30 min, cut-off 10 sec, listed as Mor): 2.74 s and 7.26 s | TFL 60 min. (Male Rats; Day 2, male rats 1-4, Mor 3 mg/kg & (−) Norketamine 3 mg/kg or saline, 60 min, cut-off 10 sec, listed as Mor): 1.94 s and 6.84 s | TFL 120 min. (Male Rats; Day 2, male rats 1-4, Mor 3 mg/kg & (−) Norketamine 3 mg/kg or saline, 120 min, cut-off 10 sec, listed as Mor): 1.48 s and 5.37 s | TFL 15 min. (Male Rats; Day 2, male rats 5-8, 3 mg/kg Mor & 3 mg/kg (+) Norketamine or saline, 15 min, cut-off 10 sec, listed as Mor): 3.41 s and 3.48 s | TFL 30 min. (Male Rats; Day 2, male rats 5-8, 3 mg/kg Mor & 3 mg/kg (+) Norketamine or saline, 30 min, cut-off 10 sec, listed as Mor): 4.09 s and 3.22 s | TFL 60 min. (Male Rats; Day 2, male rats 5-8, 3 mg/kg Mor & 3 mg/kg (+) Norketamine or saline, 60 min, cut-off 10 sec, listed as Mor): 4.03 s and 3.01 s | TFL 120 min. (Male Rats; Day 2, male rats 5-8, 3 mg/kg Mor & 3 mg/kg (+) Norketamine or saline, 120 min, cut-off 10 sec, listed as Mor): 2.94 s and 2.12 s | TFL 15 min. (Male Rats; second series, Day 1, male rats 1-4, 3 mg/kg Morphine & saline or 3 mg/kg (−) Norketamine, 15 min, cut-off 10 sec): 2.92 s and 1.82 s | TFL 30 min. (Male Rats; second series, Day 1, male rats 1-4, 3 mg/kg Morphine & saline or 3 mg/kg (−) Norketamine, 30 min, cut-off 10 sec): 3.64 s and 2.36 s | TFL 60 min. (Male Rats; second series, Day 1, male rats 1-4, 3 mg/kg Morphine & saline or 3 mg/kg (−) Norketamine, 60 min, cut-off 10 sec): 3.28 s and 3.30 s | TFL 120 min. (Male Rats; second series, Day 1, male rats 1-4, 3 mg/kg Morphine & saline or 3 mg/kg (−) Norketamine, 120 min, cut-off 10 sec): 2.74 s and 1.92 s | TFL 15 min. (Male Rats; second series, Day 1, male rats 5-8, 3 mg/kg Morphine & saline or 3 mg/kg (+) Norketamine, 15 min, cut-off 10 sec): 2.97 s and 2.88 s | TFL 30 min. (Male Rats; second series, Day 1, male rats 5-8, 3 mg/kg Morphine & saline or 3 mg/kg (+) Norketamine, 30 min, cut-off 10 sec): 2.75 s and 3.86 s | TFL 60 min. (Male Rats; second series, Day 1, male rats 5-8, 3 mg/kg Morphine & saline or 3 mg/kg (+) Norketamine, 60 min, cut-off 10 sec): 3.51 s and 3.69 s | TFL 120 min. (Male Rats; second series, Day 1, male rats 5-8, 3 mg/kg Morphine & saline or 3 mg/kg (+) Norketamine, 120 min, cut-off 10 sec): 2.70 s and 2.17 s | TFL 15 min. (Male Rats; second series, Day 2, male rats 5-8, 3 mg/kg Morphine & 3 mg/kg (+) Norketamine or saline, 15 min, cut-off 10 seconds): 2.25 s and 1.56 s | TFL 30 min. (Male Rats; second series, Day 2, male rats 5-8, 3 mg/kg Morphine & 3 mg/kg (+) Norketamine or saline, 30 min, cut-off 10 seconds): 2.46 s and 1.97 s | TFL 60 min. (Male Rats; second series, Day 2, male rats 5-8, 3 mg/kg Morphine & 3 mg/kg (+) Norketamine or saline, 60 min, cut-off 10 seconds): 3.83 s and 2.08 s | TFL 120 min. (Male Rats; second series, Day 2, male rats 5-8, 3 mg/kg Morphine & 3 mg/kg (+) Norketamine or saline, 120 min, cut-off 10 seconds): 2.60 s and 2.24 s

NC1(c2ccccc2Cl)CCCCC1=O (stereo not drawn) [Norketamine, 2-(2-chlorophenyl)-2-amino-cyclohexanone]
anesthetic and analgesic potency relative to ketamine ([1]; speculated): one third that of ketamine | binding to the NMDA receptor relative to S- and R-ketamine (NMDA receptor): less tightly than either S- or R-ketamine

CN[C@]1(c2ccccc2Cl)CCCCC1=O [S-ketamine]
potency relative to R-ketamine [1]: twice as potent as R-ketamine
